# Source: patent US6737383B1, “Herbicidal oxadiazolidines” (priority 1999, dated 2004)
# Experiments:
# corn = experiment: Test B pre/postemergence corn; format: in vivo, Zea mays
# In short: (§1)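 Test chemicals in a non-phytotoxic solvent mixture with surfactant were sprayed preemergence onto planted seeds and postemergence onto plants 2 to 18 cm tall (1- to 4-leaf stage). After twelve to sixteen days in a greenhouse, injury was visually rated against untreated controls from 0 (no effect) to 10 (complete control).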
# pigweed = experiment: Test B pre/postemergence pigweed; format: in vivo, Amaranthus retroflexus
# In short: as §1
# wild oat = experiment: Test B pre/postemergence wild oat; format: in vivo, Avena fatua
# In short: as §1
# wheat = experiment: Test B pre/postemergence wheat; format: in vivo, Triticum aestivum
# In short: as §1
# smallflower flatsedge = experiment: Test B flood test smallflower flatsedge; format: in vivo, Cyperus difformis; conditions: for S. Flatsedge plant response rating: scale of 0 to 10 where 0 is no effect and 10 is complete control
# In short: (§2)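 Flood test on plants grown to the 2-leaf stage; treated plants kept in greenhouse twelve to sixteen days, then visually rated against controls on a 0 (no effect) to 10 (complete control) scale.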
# purple nutsedge = experiment: Test B pre/postemergence purple nutsedge; format: in vivo, Cyperus rotundus
# In short: as §1
# sugar beet = experiment: Test B pre/postemergence sugar beet; format: in vivo, Beta vulgaris
# In short: as §1
# bamyardgrass = experiment: Test B flood test barnyardgrass; format: in vivo, Echinochloa crus-galli
# In short: as §2
# blackgrass = experiment: Test B pre/postemergence blackgrass; format: in vivo, Alopecurus myosuroides
# In short: as §1
# velvetleaf = experiment: Test B pre/postemergence velvetleaf; format: in vivo, Abutilon theophrasti
# In short: as §1
# bedstraw = experiment: Test B pre/postemergence bedstraw; format: in vivo, Galium aparine
# In short: as §1
# soybean = experiment: Test B pre/postemergence soybean; format: in vivo, Glycine max
# In short: as §1
# surinam grass = experiment: Test B pre/postemergence surinam grass; format: in vivo, Brachiaria decumbens
# In short: as §1
# rape = experiment: Test B pre/postemergence rape; format: in vivo, Brassica napus
# In short: as §1
# cocklebur = experiment: Test B pre/postemergence cocklebur; format: in vivo, Xanthium strumarium
# In short: as §1
# crabgrass = experiment: Test B pre/postemergence crabgrass; format: in vivo, Digitaria sanguinalis
# In short: as §1
# [1] = Postemergence, Rate 125 g/ha, scale of 0 to 10 where 0 is no effect and 10 is complete control
# [2] = Preemergence, Rate 31 g/ha, visual rating, scale 0 to 10 (0 no effect, 10 complete control)
# [3] = Preemergence, Rate 62 g/ha, scale 0 to 10 (0 no effect, 10 complete control)
# [4] = Preemergence, Rate 125 g/ha, 0 is no effect, 10 is complete control
# [5] = Preemergence, Rate 250 g/ha, scale 0 to 10, 0 is no effect, 10 is complete control
# [6] = Rate 31 g/ha, Postemergence, scale 0 to 10
# [7] = Rate 62 g/ha, Postemergence, scale of 0 to 10 where 0 is no effect and 10 is complete control
# [8] = Rate 250 g/ha, Postemergence, scale 0 to 10, 0 is no effect, 10 is complete control
# [9] = Rate 250 g/ha, Postemergence (flood test), scale 0 to 10, 0 is no effect, 10 is complete control
smiles,measurement,setting,value
Cc1noc(C)c1-n1c(=O)on(C(=O)N(c2ccc(F)cc2)C(C)C)c1=O [Compound 155],Corn plant response rating,corn; [1],0
same,Corn plant response rating,corn; [2],0
same,Corn plant response rating,corn; [3],0
same,Corn plant response rating (0 to 10 scale),corn; [4],0
same,Corn plant response rating,corn; [5],0
same,Corn plant response rating,corn; [6],0
same,Corn plant response rating,corn; [7],0
same,"Plant response rating, Corn",corn; [8],2
same,Redroot pigweed plant response rating,pigweed; [1],0
same,Redroot pigweed plant response rating,pigweed; [2],0
same,Redroot pigweed plant response rating,pigweed; [3],0
same,Redroot pigweed plant response rating (0 to 10 scale),pigweed; [4],0
same,Redroot pigweed plant response rating,pigweed; [5],3
same,Redroot pigweed plant response rating,pigweed; [6],0
same,Redroot pigweed plant response rating,pigweed; [7],0
same,"Plant response rating, Redroot pigweed",pigweed; [8],0
same,Wild oats plant response rating,wild oat; [2],0
same,Wild oats plant response rating,wild oat; [3],0
same,Wild oats plant response rating (0 to 10 scale),wild oat; [4],0
same,Wild oats plant response rating,wild oat; [5],0
same,Wild oats plant response rating,wild oat; [7],0
same,"Plant response rating, Wild oats",wild oat; [8],0
same,Wheat plant response rating,wheat; [2],0
same,Wheat plant response rating,wheat; [3],0
same,Wheat plant response rating (0 to 10 scale),wheat; [4],0
same,Wheat plant response rating,wheat; [5],0
same,Wheat plant response rating,wheat; [7],0
same,"Plant response rating, Wheat",wheat; [8],0
same,S. Flatsedge plant response rating,"smallflower flatsedge; Postemergence (flood test species), Rate 125 g/ha",0
same,S. Flatsedge plant response rating,"smallflower flatsedge; Rate 62 g/ha, Postemergence section, flood test species",0
same,"Plant response rating, S. Flatsedge",smallflower flatsedge; [9],0
same,Nutsedge plant response rating,purple nutsedge; [1],0
same,Nutsedge plant response rating,purple nutsedge; [2],0
same,Nutsedge plant response rating,purple nutsedge; [3],0
same,Nutsedge plant response rating (0 to 10 scale),purple nutsedge; [4],0
same,Nutsedge plant response rating,purple nutsedge; [5],0
same,Nutsedge plant response rating,purple nutsedge; [6],0
same,Nutsedge plant response rating,purple nutsedge; [7],0
same,"Plant response rating, Nutsedge",purple nutsedge; [8],0
same,Sugarbeets plant response rating,sugar beet; [1],0
same,Sugarbeets plant response rating,sugar beet; [2],0
same,Sugarbeets plant response rating,sugar beet; [3],0
same,Sugarbeets plant response rating (0 to 10 scale),sugar beet; [4],0
same,Sugarbeets plant response rating,sugar beet; [5],0
same,Sugarbeets plant response rating,sugar beet; [7],0
same,"Plant response rating, Sugarbeets",sugar beet; [8],0
same,Barnyardgrass plant response rating,"bamyardgrass; Postemergence (flood test species), Rate 125 g/ha, scale of 0 to 10 where 0 is no effect and 10 is complete control",0
same,Barnyardgrass plant response rating,"bamyardgrass; Rate 31 g/ha, Postemergence section (flood test species), scale 0 to 10",0
same,Barnyardgrass plant response rating,"bamyardgrass; Rate 62 g/ha, Postemergence section, flood test species, scale of 0 to 10 where 0 is no effect and 10 is complete control",0
same,"Plant response rating, Barnyardgrass",bamyardgrass; [9],0
same,Blackgrass plant response rating,blackgrass; [1],0
same,Blackgrass plant response rating,blackgrass; [2],0
same,Blackgrass plant response rating,blackgrass; [3],0
same,Blackgrass plant response rating (0 to 10 scale),blackgrass; [4],0
same,Blackgrass plant response rating,blackgrass; [5],2
same,Blackgrass plant response rating,blackgrass; [6],0
same,Blackgrass plant response rating,blackgrass; [7],0
same,"Plant response rating, Blackgrass",blackgrass; [8],2
same,Velvetleaf plant response rating,velvetleaf; [2],0
same,Velvetleaf plant response rating,velvetleaf; [3],0
same,Velvetleaf plant response rating (0 to 10 scale),velvetleaf; [4],0
same,Velvetleaf plant response rating,velvetleaf; [5],0
same,Velvetleaf plant response rating,velvetleaf; [7],0
same,"Plant response rating, Velvetleaf",velvetleaf; [8],0
same,Bedstraw plant response rating,bedstraw; [1],0
same,Bedstraw plant response rating,bedstraw; [2],0
same,Bedstraw plant response rating,bedstraw; [3],0
same,Bedstraw plant response rating (0 to 10 scale),bedstraw; [4],0
same,Bedstraw plant response rating,bedstraw; [5],0
same,Bedstraw plant response rating,bedstraw; [6],0
same,Bedstraw plant response rating,bedstraw; [7],0
same,"Plant response rating, Bedstraw",bedstraw; [8],0
same,Soybean plant response rating,soybean; [1],1
same,Soybean plant response rating,soybean; [2],0
same,Soybean plant response rating,soybean; [3],0
same,Soybean plant response rating (0 to 10 scale),soybean; [4],0
same,Soybean plant response rating,soybean; [5],0
same,Soybean plant response rating,soybean; [7],1
same,"Plant response rating, Soybean",soybean; [8],1
same,B. signalgrass plant response rating,surinam grass; [1],0
same,B. signalgrass plant response rating,surinam grass; [2],0
same,B. signalgrass plant response rating,surinam grass; [3],0
same,B. signalgrass plant response rating (0 to 10 scale),surinam grass; [4],0
same,B. signalgrass plant response rating,surinam grass; [5],0
same,B. signalgrass plant response rating,surinam grass; [6],0
same,B. signalgrass plant response rating,surinam grass; [7],0
same,"Plant response rating, B. signalgrass",surinam grass; [8],0
same,Rape plant response rating,rape; [1],0
same,Rape plant response rating,rape; [2],0
same,Rape plant response rating,rape; [3],0
same,Rape plant response rating (0 to 10 scale),rape; [4],0
same,Rape plant response rating,rape; [5],0
same,Rape plant response rating,rape; [6],0
same,Rape plant response rating,rape; [7],0
same,"Plant response rating, Rape",rape; [8],0
same,Cocklebur plant response rating,cocklebur; [1],0
same,Cocklebur plant response rating,cocklebur; [2],0
same,Cocklebur plant response rating,cocklebur; [3],0
same,Cocklebur plant response rating (0 to 10 scale),cocklebur; [4],0
same,Cocklebur plant response rating,cocklebur; [5],0
same,Cocklebur plant response rating,cocklebur; [6],0
same,Cocklebur plant response rating,cocklebur; [7],0
same,"Plant response rating, Cocklebur",cocklebur; [8],0
same,Crabgrass plant response rating,crabgrass; [1],2
same,Crabgrass plant response rating,crabgrass; [2],0
same,Crabgrass plant response rating,crabgrass; [3],0
same,Crabgrass plant response rating (0 to 10 scale),crabgrass; [4],0
same,Crabgrass plant response rating,crabgrass; [5],6
same,Crabgrass plant response rating,crabgrass; [6],0
same,Crabgrass plant response rating,crabgrass; [7],1
same,"Plant response rating, Crabgrass",crabgrass; [8],8
